Reference: paper PMC9983021, “Novel GluN2B-Selective NMDA Receptor Negative Allosteric Modulator Possesses Intrinsic Analgesic Properties and Enhances Analgesia of Morphine in a Rodent Tail Flick Pain Model” (ACS Chemical Neuroscience, 2023)
Where two headings read alike, the source gives them in different places.

Tests used:
5-HT7A = molecular target: T1, 5-HT7A (Homo sapiens, UniProt P34969); assay: Radioligand binding assay (NIMH PDSP); details: primary screen, quadruplicate
T1 construct: purchased NIMH Psychoactive Drug Screening Program (PDSP)
Experimental: (§1) Conventional competition and saturation radioligand binding assays were used to determine the affinities of reference standards and EU93-108. Experiments were carried out by the NIMH Psychoactive Drug Screening Program (PDSP) and were performed as previously described.[123]
(§2) The detailed experimental protocols for the radioligand assays are available on the NIMH PDSP website at https://pdsp.unc.edu/pdspweb/content/UNC-CH%20Protocol%20Book.pdf.
(§3) Receptor Mean % Receptor Mean % Receptor Mean %
(§4) Inhibition Inhibition Inhibition
(§5) Supplemental Table S4. Off-Target Actions of EU93-108: Primary GPCR Screen. Cloned human molecular targets were individually expressed and submitted to molecular target-based screening with initial screens performed at a final concentration of 10 µM in quadruplicate. Complete protocols for the assays have been previously published (Besnard J et al. 2012). Where inhibition greater than 50% was measured, secondary screens were performed wherein Ki values were calculated (see Table 4).

5-HT6 = molecular target: T2, 5-HT6 (Homo sapiens, UniProt P50406); assay: Radioligand binding assay (NIMH PDSP); details: primary screen, quadruplicate
T2 construct: purchased NIMH Psychoactive Drug Screening Program (PDSP)
Experimental: as §1, §2, §3, §4, §5

DAT = molecular target: T3, DAT (Homo sapiens, UniProt Q01959); assay: Radioligand binding assay (NIMH PDSP); details: primary screen, quadruplicate
T3 construct: purchased NIMH Psychoactive Drug Screening Program (PDSP)
Experimental: as §1, §2, §3, §4, §5

5-HT1A = molecular target: T4, 5-HT1A (Homo sapiens, UniProt P08908); assay: Radioligand binding assay (NIMH PDSP); details: primary screen, quadruplicate
T4 construct: purchased NIMH Psychoactive Drug Screening Program (PDSP)
Experimental: as §1, §2, §3, §4, §5

Alpha1B = molecular target: T5, Alpha1B (Homo sapiens, UniProt P35368); assay: Radioligand binding assay (NIMH PDSP); details: primary screen, quadruplicate
T5 construct: purchased NIMH Psychoactive Drug Screening Program (PDSP)
Experimental: as §1, §2, §3, §4, §5

5-HT1D = molecular target: T6, 5-HT1D (Homo sapiens, UniProt P28221); assay: Radioligand binding assay (NIMH PDSP); details: primary screen, quadruplicate
T6 construct: purchased NIMH Psychoactive Drug Screening Program (PDSP)
Experimental: as §1, §2, §3, §4, §5

BZP Rat Brain Site = assay: Radioligand binding assay (NIMH PDSP); details: primary screen, 10 µM, quadruplicate
Experimental: as §1, §2, §3, §4, §5

Sigma2 = molecular target: T7, Sigma2 (Homo sapiens, UniProt Q5BJF2); assay: Radioligand binding assay (NIMH PDSP); details: primary screen, quadruplicate
T7 construct: purchased NIMH Psychoactive Drug Screening Program (PDSP)
Experimental: as §1, §2, §3, §4, §5

Beta1 = molecular target: T8, Beta1 (Homo sapiens, UniProt P08588); assay: Radioligand binding assay (NIMH PDSP); details: primary screen, quadruplicate
T8 construct: purchased NIMH Psychoactive Drug Screening Program (PDSP)
Experimental: as §1, §2, §3, §4, §5

M3 = molecular target: T9, M3 (Homo sapiens, UniProt P20309); assay: Radioligand binding assay (NIMH PDSP); details: primary screen, quadruplicate
T9 construct: purchased NIMH Psychoactive Drug Screening Program (PDSP)
Experimental: as §1, §2, §3, §4, §5

in vivo = assay: in vivo; design: species or system mice; details: C57BL/6J, mouse, ip
Experimental: Some NMDAR antagonists can impact locomotor behavior in animals.[84]−[86] Lower doses have minimal impact while high doses can have anesthetic action that can produce complete immobility. We evaluated this potential side effect in a locomotor assay using a range of doses of EU93-108.
For both male and female mice, n = 8 mice per group were used. Locomotor activity was assessed at 3, 5, 7, 10, 20, and 30 mg/kg EU93-108. Mice were brought to the experiment room the night before and given ad libitum access to food and water. Each mouse was given an i.p. injection of the appropriate dose or vehicle 30 min prior to starting the locomotor boxes (Versamax420 Animal Activity Monitoring System, AccuScan Instruments, Inc., Columbus, OH). Movements of the mice were tracked for 1 h then the mice were placed back in their cages. Data were analyzed using one-way ANOVA and Dunnett’s post hoc test for multiple comparisons where each group was compared to vehicle. Data are presented as mean ± SEM.

[1] = molecular target: diheteromeric human GluN1/GluN2B/GluN2B (h2B/h2B) (Homo sapiens, UniProt Q05586+Q13224); assay: Concentration-inhibition curves, oocytes
[2] = Determination of plasma and brain concentrations; assay type: in vivo; details: Sprague-Dawley, rat, ip, male rats, 60 mg/kg i.p.
Experimental: Brain concentrations were measured from whole forebrain homogenate at each time point.
Trunk blood was collected in K-EDTA tubes and then spun in a microcentrifuge at 3500 rpm for 10 min to separate plasma, which was then transferred to a clean tube and frozen on dry ice. To prepare forebrain tissue samples, the whole brain was removed from the skull, the cerebellum and brainstem cut away, the meninges were removed, and the forebrain was then rinsed with ice-cold normal saline, after which it was blotted dry with filter paper and weighed on a microbalance. To each forebrain 2.5 mL of ice-cold 50 mM K-phosphate buffer (pH 7.4) was then added and the samples homogenized with a hand-held homogenizer. The brain homogenates were then transferred to clean tubes (2 per brain) and frozen on dry ice.
Plasma and brain homogenate samples were analyzed by LC-MS/MS operating in multiple reaction monitor mode (MRM) by Ricerca Biosciences (Dublin, OH). […] The amount of parent compound in each plasma or brain sample was calculated by comparing the response of the analyte in the sample to that of a standard curve (Ricerca, OH).

H1 = H1 (Homo sapiens, UniProt P35367); assay: Radioligand binding assay (NIMH PDSP); details: for Ki: secondary screen, binding competition curve
Experimental: (§6) Compound EU93-108 was also tested for inhibition of binding of probes to a range of GPCRs and other targets (Table 4 and Supporting Table S4). […] EU93-108 produced significant displacement of binding probes for the 5-HT2 receptors and α-1-adrenergic receptors, as well as D3, H1, and σ1 receptors. Concentration–response binding competition curves for these targets were used to determine Ki values (Table 4). Given that the brain concentration of EU93-108 achieved 30 min post i.p. injection is 18 μM (Figure 6), the doses that yield our desired antinociceptive effects may engage some of the receptors listed in Table 4.
as §1, §2, §3, §4, §5

Alpha2A (α2A) = molecular target: T10, Alpha2A (α2A) (Homo sapiens, UniProt P08913); assay: Radioligand binding assay (NIMH PDSP)
T10 sequence (P08913 1-465): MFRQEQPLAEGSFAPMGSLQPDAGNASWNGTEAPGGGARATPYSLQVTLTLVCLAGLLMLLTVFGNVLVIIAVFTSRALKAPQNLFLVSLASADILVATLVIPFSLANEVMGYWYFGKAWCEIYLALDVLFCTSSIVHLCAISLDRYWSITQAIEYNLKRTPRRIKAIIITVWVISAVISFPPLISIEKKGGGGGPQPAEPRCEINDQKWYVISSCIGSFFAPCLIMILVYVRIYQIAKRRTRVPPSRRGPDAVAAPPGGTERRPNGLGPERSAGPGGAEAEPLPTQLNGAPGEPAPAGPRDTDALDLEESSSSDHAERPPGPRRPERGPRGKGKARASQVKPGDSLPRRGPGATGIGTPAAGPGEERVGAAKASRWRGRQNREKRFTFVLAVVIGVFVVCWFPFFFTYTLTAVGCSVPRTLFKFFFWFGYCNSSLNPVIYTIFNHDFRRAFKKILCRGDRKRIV
Experimental: as §6, §1, §2, §3, §4, §5

[3] = primary screen, 10 µM, quadruplicate
[4] = ratio of Ki to the IC50 for EU93-108 (555 nM) at GluN2B

Chain of H1 (P35367 whole entry): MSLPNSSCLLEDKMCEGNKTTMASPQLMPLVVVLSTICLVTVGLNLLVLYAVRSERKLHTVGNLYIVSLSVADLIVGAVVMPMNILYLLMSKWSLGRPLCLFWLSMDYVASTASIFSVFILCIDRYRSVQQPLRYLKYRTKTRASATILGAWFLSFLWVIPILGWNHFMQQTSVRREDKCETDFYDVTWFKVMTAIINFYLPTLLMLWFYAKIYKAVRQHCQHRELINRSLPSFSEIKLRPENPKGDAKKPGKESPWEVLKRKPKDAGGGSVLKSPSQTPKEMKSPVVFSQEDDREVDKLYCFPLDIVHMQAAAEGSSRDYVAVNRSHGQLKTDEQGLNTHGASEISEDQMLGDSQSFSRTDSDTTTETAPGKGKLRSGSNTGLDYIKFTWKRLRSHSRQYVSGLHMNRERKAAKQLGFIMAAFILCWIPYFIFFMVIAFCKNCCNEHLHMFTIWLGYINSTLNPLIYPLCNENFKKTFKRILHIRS
Chain of diheteromeric human GluN1/GluN2B/GluN2B (h2B/h2B) (Q13224 27-1484, other chains not shown): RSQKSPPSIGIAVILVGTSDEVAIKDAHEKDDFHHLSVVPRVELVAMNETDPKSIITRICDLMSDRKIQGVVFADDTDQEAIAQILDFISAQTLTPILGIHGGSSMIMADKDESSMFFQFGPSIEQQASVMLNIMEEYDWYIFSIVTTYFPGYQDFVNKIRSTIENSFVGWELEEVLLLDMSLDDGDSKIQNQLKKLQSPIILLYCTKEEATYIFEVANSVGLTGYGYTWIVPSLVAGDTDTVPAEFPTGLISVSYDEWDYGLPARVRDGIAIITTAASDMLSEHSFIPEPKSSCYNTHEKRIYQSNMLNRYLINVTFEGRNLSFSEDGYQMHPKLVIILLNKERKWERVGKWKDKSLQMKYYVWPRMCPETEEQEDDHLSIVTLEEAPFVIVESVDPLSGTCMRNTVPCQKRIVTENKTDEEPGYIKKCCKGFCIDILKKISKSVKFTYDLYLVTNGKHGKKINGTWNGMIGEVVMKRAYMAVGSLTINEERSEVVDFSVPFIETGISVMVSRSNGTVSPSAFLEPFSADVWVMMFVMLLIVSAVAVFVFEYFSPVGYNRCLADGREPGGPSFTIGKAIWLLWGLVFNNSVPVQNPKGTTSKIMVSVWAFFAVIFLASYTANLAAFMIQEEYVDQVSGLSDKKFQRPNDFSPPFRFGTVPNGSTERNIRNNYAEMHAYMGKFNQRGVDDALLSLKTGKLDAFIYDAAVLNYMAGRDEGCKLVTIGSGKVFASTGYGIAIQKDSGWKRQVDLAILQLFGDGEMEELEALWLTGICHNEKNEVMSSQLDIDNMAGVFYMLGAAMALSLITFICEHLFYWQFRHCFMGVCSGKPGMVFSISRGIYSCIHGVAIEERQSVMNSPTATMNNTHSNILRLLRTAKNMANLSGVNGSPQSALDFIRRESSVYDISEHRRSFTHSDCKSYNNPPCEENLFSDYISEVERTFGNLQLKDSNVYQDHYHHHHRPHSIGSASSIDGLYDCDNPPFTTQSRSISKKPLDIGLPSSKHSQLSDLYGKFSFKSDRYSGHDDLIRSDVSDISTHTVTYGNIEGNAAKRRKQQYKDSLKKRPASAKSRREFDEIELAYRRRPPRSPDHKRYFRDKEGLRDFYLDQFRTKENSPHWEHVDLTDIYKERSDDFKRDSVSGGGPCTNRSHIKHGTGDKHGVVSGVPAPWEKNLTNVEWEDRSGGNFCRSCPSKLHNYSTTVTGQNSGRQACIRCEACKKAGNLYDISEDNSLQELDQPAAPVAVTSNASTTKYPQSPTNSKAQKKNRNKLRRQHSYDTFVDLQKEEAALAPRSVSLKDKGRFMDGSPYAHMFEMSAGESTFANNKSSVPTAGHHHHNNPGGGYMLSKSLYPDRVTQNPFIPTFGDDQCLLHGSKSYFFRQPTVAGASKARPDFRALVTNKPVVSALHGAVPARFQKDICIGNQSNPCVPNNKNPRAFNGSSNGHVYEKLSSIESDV
T7 sequence (Q5BJF2 whole entry): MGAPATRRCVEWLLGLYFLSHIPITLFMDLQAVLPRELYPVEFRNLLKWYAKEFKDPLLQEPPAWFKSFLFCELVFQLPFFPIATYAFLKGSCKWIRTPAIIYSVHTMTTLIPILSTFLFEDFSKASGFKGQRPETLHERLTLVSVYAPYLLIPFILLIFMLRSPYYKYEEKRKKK
T4 sequence (P08908 whole entry): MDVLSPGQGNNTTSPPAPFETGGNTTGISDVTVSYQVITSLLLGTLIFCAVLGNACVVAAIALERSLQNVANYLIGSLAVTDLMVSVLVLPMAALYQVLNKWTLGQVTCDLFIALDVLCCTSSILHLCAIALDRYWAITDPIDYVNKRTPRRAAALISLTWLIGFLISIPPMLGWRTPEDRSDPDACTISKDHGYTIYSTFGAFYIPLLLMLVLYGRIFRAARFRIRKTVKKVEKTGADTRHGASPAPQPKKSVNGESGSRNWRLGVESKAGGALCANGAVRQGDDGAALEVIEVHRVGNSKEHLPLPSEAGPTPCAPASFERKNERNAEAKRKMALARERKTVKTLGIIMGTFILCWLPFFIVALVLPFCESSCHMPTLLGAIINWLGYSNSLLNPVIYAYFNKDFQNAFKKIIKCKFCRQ
T1 sequence (P34969 1-445 isoform P34969-2): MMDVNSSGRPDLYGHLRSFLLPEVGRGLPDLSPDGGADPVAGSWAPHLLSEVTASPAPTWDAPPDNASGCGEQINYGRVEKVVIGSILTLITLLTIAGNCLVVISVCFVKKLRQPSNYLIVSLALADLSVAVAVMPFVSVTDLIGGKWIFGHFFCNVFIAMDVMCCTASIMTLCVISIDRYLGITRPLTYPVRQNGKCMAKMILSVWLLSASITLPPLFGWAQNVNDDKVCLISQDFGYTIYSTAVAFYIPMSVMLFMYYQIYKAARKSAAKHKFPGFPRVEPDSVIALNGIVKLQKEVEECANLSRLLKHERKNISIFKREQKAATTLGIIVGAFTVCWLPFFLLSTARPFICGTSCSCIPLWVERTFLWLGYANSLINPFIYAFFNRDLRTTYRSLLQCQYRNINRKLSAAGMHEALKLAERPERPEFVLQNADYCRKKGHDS
T5 sequence (P35368 whole entry): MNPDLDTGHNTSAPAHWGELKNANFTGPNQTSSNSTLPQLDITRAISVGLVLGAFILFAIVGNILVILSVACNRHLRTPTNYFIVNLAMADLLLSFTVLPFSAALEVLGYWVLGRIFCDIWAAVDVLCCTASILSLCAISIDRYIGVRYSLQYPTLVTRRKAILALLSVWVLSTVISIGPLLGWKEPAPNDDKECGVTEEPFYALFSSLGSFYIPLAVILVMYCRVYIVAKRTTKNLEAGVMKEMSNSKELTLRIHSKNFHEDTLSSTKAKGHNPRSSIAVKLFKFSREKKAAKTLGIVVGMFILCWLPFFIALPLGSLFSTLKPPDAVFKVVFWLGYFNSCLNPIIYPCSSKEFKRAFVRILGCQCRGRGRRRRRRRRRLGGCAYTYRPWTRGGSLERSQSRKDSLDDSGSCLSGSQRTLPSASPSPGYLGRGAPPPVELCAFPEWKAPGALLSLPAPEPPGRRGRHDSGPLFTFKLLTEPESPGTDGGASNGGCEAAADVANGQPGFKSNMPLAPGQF
T9 sequence (P20309 whole entry): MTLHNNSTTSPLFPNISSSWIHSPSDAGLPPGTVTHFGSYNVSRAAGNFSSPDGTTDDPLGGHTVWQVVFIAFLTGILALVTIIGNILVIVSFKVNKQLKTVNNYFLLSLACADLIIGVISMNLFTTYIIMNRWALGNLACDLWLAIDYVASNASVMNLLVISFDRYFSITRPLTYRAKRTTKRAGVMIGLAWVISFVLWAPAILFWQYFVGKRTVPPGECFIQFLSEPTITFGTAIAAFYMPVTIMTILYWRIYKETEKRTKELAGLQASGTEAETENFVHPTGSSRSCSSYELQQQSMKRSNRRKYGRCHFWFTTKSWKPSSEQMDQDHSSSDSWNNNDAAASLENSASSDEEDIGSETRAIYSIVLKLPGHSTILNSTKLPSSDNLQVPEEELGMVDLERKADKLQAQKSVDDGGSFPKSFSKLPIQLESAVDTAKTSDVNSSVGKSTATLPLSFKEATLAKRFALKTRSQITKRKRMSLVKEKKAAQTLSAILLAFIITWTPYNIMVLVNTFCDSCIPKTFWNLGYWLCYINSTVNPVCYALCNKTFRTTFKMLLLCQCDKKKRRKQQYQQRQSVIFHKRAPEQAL
T6 sequence (P28221 whole entry): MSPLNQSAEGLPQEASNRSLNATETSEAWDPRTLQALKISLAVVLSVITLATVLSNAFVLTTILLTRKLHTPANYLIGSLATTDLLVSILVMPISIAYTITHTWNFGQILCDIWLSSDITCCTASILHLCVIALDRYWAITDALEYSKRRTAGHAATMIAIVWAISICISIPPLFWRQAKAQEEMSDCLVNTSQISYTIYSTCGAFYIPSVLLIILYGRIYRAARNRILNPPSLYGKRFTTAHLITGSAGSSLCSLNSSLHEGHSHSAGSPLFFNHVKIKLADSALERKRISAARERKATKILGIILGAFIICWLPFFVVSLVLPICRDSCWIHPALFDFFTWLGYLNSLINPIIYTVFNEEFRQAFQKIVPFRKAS
T2 sequence (P50406 whole entry): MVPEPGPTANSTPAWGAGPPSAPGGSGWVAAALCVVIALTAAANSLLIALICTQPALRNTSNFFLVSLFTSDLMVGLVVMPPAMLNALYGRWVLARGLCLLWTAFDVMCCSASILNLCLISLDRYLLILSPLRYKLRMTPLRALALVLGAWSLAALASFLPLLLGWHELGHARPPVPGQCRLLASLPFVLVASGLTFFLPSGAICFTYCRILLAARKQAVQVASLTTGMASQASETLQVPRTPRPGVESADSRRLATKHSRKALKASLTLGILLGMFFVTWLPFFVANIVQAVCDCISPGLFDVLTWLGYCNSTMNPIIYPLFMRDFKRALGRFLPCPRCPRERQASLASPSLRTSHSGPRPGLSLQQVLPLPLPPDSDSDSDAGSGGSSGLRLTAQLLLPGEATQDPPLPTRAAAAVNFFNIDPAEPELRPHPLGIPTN

CS(=O)(=O)Nc1ccc(OC[C@@H](O)CN2CCN(c3ccc(F)c(F)c3)CC2)cc1 [EU93-108, (S)-N-(4-(3-(4-(3,4-Difluorophenyl)piperazin-1-yl)-2-hydroxypropoxy)phenyl)methanesulfonamide]
inhibition at 10 µM (5-HT7A): 55.9% | inhibition at 10 µM (5-HT6): 25.3% | inhibition at 10 µM (DAT): -7.01% | inhibition at 10 µM (5-HT1A): 22.8% | inhibition at 10 µM (Alpha1B): 5.09% | inhibition at 10 µM (5-HT1D): 39.2% | Mean % Inhibition (BZP Rat Brain Site): 14.68% | inhibition at 10 µM (Sigma2): 47.2% | inhibition at 10 µM (Beta1): 29.1% | inhibition at 10 µM (M3): 9.26% | ED50 at 1 h (in vivo; female): 15.2 mg/kg | ED50 at 1 h (in vivo; male): 13.5 mg/kg | IC50 [1]: 261 nM | residual current remaining at 10 μM EU93-108 ([1]; 10 μM, % of maximal response, n = 10): 12% | nH ([1]; Hill slope factor of the inhibition curve, Table S1): -1.16 | Ymin ([1]; residual response, Table S1, N = 10): 12.0 | Kp at 60 min ([2]; brain (forebrain homogenate) / plasma, from Cmax, read-out: brain-to-plasma ratio): 0.6 | Cmax ([2]; brain (whole forebrain homogenate), whole forebrain homogenate, read-out: Cmax in brain): 18 µM | half-life ([2]; plasma and brain (forebrain homogenate)): > 240 min | Tmax ([2]; plasma and brain (forebrain homogenate), read-out: time of peak concentration (Tmax) (converted)): 30 min | Cmax ([2]; plasma, read-out: Cmax in plasma): 30 µM | inhibition at 10 µM (H1; [3]): 76.9% | Ki/IC50 of EU93-108 (H1; [4]): 0.46 | Ki (H1; read-out: Ki): 254 nM | Ki (H1; read-out: log(Ki) (converted)): 257 nM | inhibition at 10 µM (Alpha2A (α2A); [3]): 77.7% | Ki/IC50 of EU93-108 (Alpha2A (α2A); [4]): 2.07 | Ki (Alpha2A (α2A); secondary screen, binding competition curve): 1150 nM
